pIC50: −log10 of the molar value. Marks after values point to notes of the source that are not given here.
Legend:
H^+/K^+-ATPase = biological target: T1, H^+/K^+-ATPase (Oryctolagus cuniculus, UniProt P27112); experiment: Inhibition of H+/K+-ATPase enzymatic activity (rabbit gastric mucosal microsomes, malachite green); assay type: biochemical; conditions: pH 6.5, 37° C. 30 min, read-out: The median inhibitory concentration (IC50) of the compound to the activity of H^+/K^+-ATPase
T1 construct: collecting the middle layer (H^+/K^+-ATPase enriched gastric membranes) into a clean centrifugal tube; from tissue; host or cells: rabbit stomach (gastric mucosal microsomes, sucrose/Ficoll gradient centrifugation)
Source text: Biological Evaluation on H^+/K^+-ATPase
The following screening assays in vitro are used to evaluate the inhibiting effect of the compound of the Invention on the enzymatic activity of H^+/K^+-ATPase. Experimental materials and instruments are as follows:
1) Rabbit gastric mucosal microsomes (enriched H^+/K^+-ATPase; extracted by the Applicant)
2) Buffer solution: 50 mmol/L HEPEs-Tris, pH=6.5, 5 mmol/L magnesium chloride, 10 μmol/L valinomycin;
3) Buffer solution: 50 mmol/L HEPEs-Tris, pH=6.5, 5 mmol/L magnesium chloride, 10 μmol/L valinomycin, 5 mmol/L potassium chloride;
4) ATP: diluting ATP to 5 mM with buffer solution 1;
5) Malachite green solution: dissolving 0.12% of malachite green in 2.5 mol/L of sulfuric acid; mixing 7.5% (V/V) of ammonium molybdate and 11% of Tween 20(V/V) in a proportion of 100:25:2;
6) The method for extracting rabbit gastric mucosal microsomes (enriched H^+/K^+-ATPase) is sucrose gradient centrifugation, i.e., washing the rabbit stomach with tap water and 3M NaCl solution respectively and removing the surface moisture with filter paper; adding the pre-cooled buffer solution (4 ml/g tissue) for homogenation in a tissue homogenizer for 2-5 min; removing the large tissue particles in a way of centrifugation (600 g, 10 mm) if any after homogenation; transferring the supernatant to a clean centrifugal tube for centrifugation for 30 min at 2000 g; then transferring the supernatant to a clean centrifugal tube for further centrifugation for 90 min at 100000 g; collecting the sediment; suspending the sediment in the homogenate and blowing it to be uniform; measuring the protein concentration with Bradford method; adjusting the concentration to 10 mg/ml; adding 7.5% Ficoll demixing fluid in an equal proportion for centrifugation for 60 min at 100000 g; collecting the middle layer (H^+/K^+-ATPase enriched gastric membranes) into a clean centrifugal tube; diluting it with 4-5 times of homogenate for further centrifugation for 90 min at 100000 g; collecting the sediment; suspending the sediment in the homogenate for homogenation with a glass homogenizer; measuring the protein concentration with Bradford method and adjusting the concentration to 22.5 mg/ml; freezing it under −80° C. for standby. Experimental Process:
Adding 5 μL of gastric mucosal microsomes (H^+/K^+-ATPase) in 45 µL of buffer solution 2; adding 5 μL of the compound solution; adding 5 μL 5 mM of ATP to start the reaction for pre-reaction at 37° C. for 30 min; adding 15 μL of malachite green solution to terminate the reaction; balancing at ambient temperature for 20 min; reading the value of absorbed light at 620 nm.
Meanwhile, conducting another reaction with the same volume without potassium chloride for background, which will be subtracted when calculating the enzymatic activity.
The value of Compound IC50 is calculated through the inhibition ratios at different concentrations.

hERG potassium channel = biological target: T2, hERG potassium channel (Homo sapiens, UniProt Q12809); experiment: Whole cell patch clamp, inhibition of hERG tail current; assay type: cell-based
T2 construct: expressed in transfected cells
Method: Test Case 2: Studies on the Effect of Compounds EXP 1, TAK-438 and EXP 12 on hERG Potassium Channel Testing System 1) Cell culture: the hERG cell is cultured in a routine way, which is subcultured in a DMEM containing 10% of fetal calf serum and 250 μg/ml of G418. 2) Fluid preparation: the composition of the extracellular fluid used in the experiment of whole cell patch clamp comprises (mM): NaCl 145, MgCl21, KCl 4, Glucose 10, HEPES 10 and CaCl22; adjusting the pH value of NaOH to 7.4 and adjusting the value of osmotic pressure to 300 mOsm with sucrose. The composition of the intracellular fluid comprises (mM):KCl 140; MgCl 21; EGTA 5; HEPES 10 and Na2ATP 4; adjusting the pH value of KOH to 7.2 and adjusting the value of osmotic pressure to 290 mOsm with sucrose.
Main composition of the extracellular and intracellular fluid
Test Procedure 1) Electrophysiological recording: taking out one culture dish for each test; cleaning it with the extracellular fluid twice and placing it on the inverted microscope stage. The experiment of whole cell patch clamp is conducted at ambient temperature; the resistance at the microelectrode tip of the used borosilicate glass is 3-5 MQ. 2) Voltage stimulus plan and current record: clamping down the membrane potential to −80 mV under the whole-cell recording mode; giving +50 mV of depolarized voltage stimulus to the cell every 30 s and lasting for 2 s, then repolarizing it to −50 mV and lasting for 3 s, thus, the tail current of hERG can be extracted. Giving 50 ms, −50 mV repolarized voltage to the cell before depolarized voltage stimulus; the current recorded at such voltage is as the base line for calculating the tail current of hERG. Only the cells meet the recording standard can be used in the test of the compounds to be tested. The hERG tail current should be recorded stably at last for 3 min in the extracellular fluid before the compound is added. After perfusion of drugs, it can be regarded that the drug effect reaches a steady state if the change of the amplitude of hERG tail current is less than 5%. If the current fails to reach a steady state in 6 min, the test should also be terminated. 3) Testing standard: the membrane resistance in the experiment should be more than 1,000 MQ. The initial current should be more than 300 pA. The series resistance should be less than 12 MQ after the whole-cell recording mode is constructed. The leakage current is less than 10% of the ionic channel current (taking −80 pA as the peak value). Data Analysis
Using Clampex 10.2 to record the original data and saving the data in the format of *abf. Using pCLAMP 10.1 to conduct data collection and analysis. Selecting 4-5 sweeps when the current is in a steady state before the compound is added; calculating the average peak value to serve as the contrasted current amplitude. Selecting 4-5 sweeps when the current is in a steady state after the compound is added; calculating the average peak value to serve as the residual amplitude of the inhibited current. The inhibition ratio of the compound to be tested to hERG current is calculated as per the equation as: % inhibition ratio={1−(current residual amplitude)/(contrasted current amplitude)}*100
After the inhibition ratio (average value±standard deviation) of the compound to be tested to the hERG current of different concentrations is obtained through the above computing method, the data with logistic equation should be fitted to obtain the value of IC50.

[1] = test system: gastric acid secretion induced by histamine; experiment: Gastric acid secretion induced by histamine in pylorus-ligated rats; assay type: in vivo; conditions: SD rat
Source text: Test Case 3: Studies on the Effect of EXP 1, TAK-438 and EXP 14 on Gastric Acid Secretion Induced by Histamine Experimental Materials 1) Animals
SD rat, class SPF, male, 180-220 g; provided by Zhejiang Experimental Animal Center; production permit no.: SCXK (Z) 2014-0001.
Compound EXP 1, dissolved with a small amount of acetic acid (about 1.10N EXP 1), 0.9% sodium chloride solution to a clear liquid with needed concentration before use.
>Compound TAK-438, dissolved with 0.9% sodium chloride solution to a clear liquid with needed concentration before use.
Compound EXP 14, dissolved with a small amount of acetic acid (about 1.10N EXP 14), 0.9% sodium chloride solution to a clear liquid with needed concentration before use.
Fetching 60 SD rats of class SPF with a weight of 180-220 g; dividing the rats into 5 groups as per weights randomly, including Group EXP 1 (2 mg/kg), Group TAK-438 (2 mg/kg, as per free alkali), Group EXP 14 (2 mg/kg), Group negative control (normal saline of equal volume) and Group model control (normal saline of equal volume); 12 rats per group. Absolute diet for 24 h, water is allowed. After 24 h, administrating drugs to the tested compound groups A, B and C by gavage with a volume of 1 ml/100 g; each group is administered once; the negative control and model negative control groups are administrated by gavage with normal saline of equal volume. Narcotizing the rat with 300 mg/kg of chloral hydrate (1 ml/100 g) and fixing it onto the rat board; cutting to open the abdominal wall along the medioventral line from the mucronate cartilage with an incision of 2-3 cm; slightly pushing the left costal margin upward to expose the stomach in the incision. Ligaturing the pylorus thereunder (leave alone the adjacent blood vessels) and then suturing the abdominal incision. Giving histamine dihydrochloride (30 mg/10 m/kg) hypodermically to the rat 1 h after the tested compound or normal saline are administrated. Choking the rat to death with excessive CO2 3 h after the histamine is given; taking out the stomach and collecting the gastric contents for centrifugation at 3000 rpm/min; adjusting the PH value of the acid fluid to 7.0 with 0.1 mol/L of NaOH titration and then calculating the total acid content of the 3 h. Refer to Table 3 for results.

T1 sequence (P27112 whole entry): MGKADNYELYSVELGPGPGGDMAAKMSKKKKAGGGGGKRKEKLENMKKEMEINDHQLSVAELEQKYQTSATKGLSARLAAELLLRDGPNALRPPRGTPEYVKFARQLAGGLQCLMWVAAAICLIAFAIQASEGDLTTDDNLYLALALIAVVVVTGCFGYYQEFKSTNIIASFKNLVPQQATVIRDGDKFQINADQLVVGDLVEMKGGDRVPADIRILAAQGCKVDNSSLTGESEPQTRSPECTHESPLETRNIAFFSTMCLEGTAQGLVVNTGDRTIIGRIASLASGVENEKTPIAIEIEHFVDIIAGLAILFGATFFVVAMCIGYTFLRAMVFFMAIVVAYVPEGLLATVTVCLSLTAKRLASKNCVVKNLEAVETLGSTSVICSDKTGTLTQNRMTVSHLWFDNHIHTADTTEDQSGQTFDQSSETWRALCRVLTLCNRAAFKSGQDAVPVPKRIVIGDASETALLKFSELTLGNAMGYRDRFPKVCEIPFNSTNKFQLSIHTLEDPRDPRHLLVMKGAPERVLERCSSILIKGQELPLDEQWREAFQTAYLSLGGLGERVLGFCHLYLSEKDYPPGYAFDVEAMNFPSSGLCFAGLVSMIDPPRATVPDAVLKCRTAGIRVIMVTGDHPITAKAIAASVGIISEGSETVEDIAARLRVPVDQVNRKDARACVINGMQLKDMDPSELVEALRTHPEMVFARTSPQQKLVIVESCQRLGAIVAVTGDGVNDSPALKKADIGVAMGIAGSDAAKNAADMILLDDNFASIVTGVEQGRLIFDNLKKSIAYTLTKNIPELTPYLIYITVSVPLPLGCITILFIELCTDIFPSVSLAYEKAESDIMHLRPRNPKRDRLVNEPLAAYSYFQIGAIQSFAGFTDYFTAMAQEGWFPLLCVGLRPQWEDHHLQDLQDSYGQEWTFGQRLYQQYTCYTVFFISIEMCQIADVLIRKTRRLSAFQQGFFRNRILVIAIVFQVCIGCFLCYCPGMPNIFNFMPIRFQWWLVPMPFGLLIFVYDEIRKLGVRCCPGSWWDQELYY
T1 sequence (P18597 whole entry partner): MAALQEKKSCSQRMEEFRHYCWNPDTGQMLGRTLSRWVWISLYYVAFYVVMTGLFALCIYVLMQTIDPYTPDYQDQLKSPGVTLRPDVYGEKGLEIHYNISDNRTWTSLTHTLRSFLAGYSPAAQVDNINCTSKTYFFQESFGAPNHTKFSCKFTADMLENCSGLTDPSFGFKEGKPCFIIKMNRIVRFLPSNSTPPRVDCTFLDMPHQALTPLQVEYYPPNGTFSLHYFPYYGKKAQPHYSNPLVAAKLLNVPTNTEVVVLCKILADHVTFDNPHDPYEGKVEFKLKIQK
T2 sequence (Q12809 whole entry): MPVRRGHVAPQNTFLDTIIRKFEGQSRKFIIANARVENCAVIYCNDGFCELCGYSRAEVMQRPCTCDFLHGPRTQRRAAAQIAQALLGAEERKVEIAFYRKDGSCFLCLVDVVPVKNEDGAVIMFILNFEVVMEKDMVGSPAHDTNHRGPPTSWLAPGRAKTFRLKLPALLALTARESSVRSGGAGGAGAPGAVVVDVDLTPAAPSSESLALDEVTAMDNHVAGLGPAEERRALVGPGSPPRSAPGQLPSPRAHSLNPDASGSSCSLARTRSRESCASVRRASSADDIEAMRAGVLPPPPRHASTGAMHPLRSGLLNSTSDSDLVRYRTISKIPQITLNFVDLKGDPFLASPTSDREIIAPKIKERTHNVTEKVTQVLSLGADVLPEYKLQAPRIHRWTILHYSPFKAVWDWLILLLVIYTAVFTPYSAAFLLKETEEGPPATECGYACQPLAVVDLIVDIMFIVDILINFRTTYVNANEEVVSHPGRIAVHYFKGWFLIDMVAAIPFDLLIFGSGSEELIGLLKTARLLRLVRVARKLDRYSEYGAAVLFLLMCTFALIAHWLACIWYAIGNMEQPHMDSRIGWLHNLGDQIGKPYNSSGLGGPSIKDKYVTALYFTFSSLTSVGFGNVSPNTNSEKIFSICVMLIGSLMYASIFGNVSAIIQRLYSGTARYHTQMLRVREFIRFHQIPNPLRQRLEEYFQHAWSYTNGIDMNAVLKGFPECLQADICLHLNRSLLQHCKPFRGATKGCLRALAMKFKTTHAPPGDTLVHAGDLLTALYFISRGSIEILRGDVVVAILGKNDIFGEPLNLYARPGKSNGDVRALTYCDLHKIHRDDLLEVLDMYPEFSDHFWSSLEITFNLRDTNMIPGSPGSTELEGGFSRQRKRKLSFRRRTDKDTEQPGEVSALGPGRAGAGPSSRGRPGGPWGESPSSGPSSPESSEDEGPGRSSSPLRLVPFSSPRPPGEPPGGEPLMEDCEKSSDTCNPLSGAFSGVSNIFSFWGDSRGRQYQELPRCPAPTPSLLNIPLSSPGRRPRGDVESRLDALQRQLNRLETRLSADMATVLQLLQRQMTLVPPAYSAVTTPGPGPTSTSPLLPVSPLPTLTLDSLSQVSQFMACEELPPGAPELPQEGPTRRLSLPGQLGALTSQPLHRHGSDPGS

Structure (SMILES)	pIC50 (H^+/K^+-ATPase)	also measured
CNCc1cc(-c2ccccc2F)n(S(=O)(=O)c2cccc(OCCOc3ccccc3)c2)c1 [EXP 10, 1-(5-(2-Fluorobenzene)-1-((3-(2-Phenoxy Ethyoxyl)Phenyl)Sulfonyl)-1H-Pyrrole-3-Yl)-N-Methyl Methylamine]	> 7.00	–
CNCc1cc(-c2ccccc2F)n(S(=O)(=O)c2cccc(OCCN3CCCCC3)c2)c1 [EXP 11]	5.30 to 6.00	–
CNCc1cc(-c2ccccc2F)n(S(=O)(=O)c2cccc(OCCN3CCOCC3)c2)c1 [EXP 5, 1-(5-(2-Fluorobenzene)-1-((3-(2-Morpholinyl Ethyoxyl)Phenyl)Sulfonyl)-1H-Pyrrole-3-Yl)-N-Methyl Methylamine]	6.00 to 7.00	–
CNCc1cc(-c2ccccc2F)n(S(=O)(=O)c2cccc(NCCN3CCOCC3)c2)c1 [EXP 6, 3-((2-(2-Fluorobenzene)-4-((Methylamino)Methylene)-1H-Pyrrole-1-Yl)Sulfonyl)-N-(2-Morpholinyl Ethyl) Henylamine]	6.00 to 7.00	–
CNCc1cc(-c2ccccc2F)n(S(=O)(=O)c2cccc(OCC3CNCCO3)c2)c1 (stereo not shown) [EXP 8, 1-(5-(2-fluorobenzene)-1-((3-(morpholinyl-2-yl-methoxyl)phenyl)sulfonyl)-1H-pyrrole-3-yl)-N-methyl methylamine]	6.00 to 7.00	–
CNCc1cc(-c2ccccc2F)n(S(=O)(=O)c2cccc(OCCCS(C)(=O)=O)c2)c1 [EXP 4, 1-(5-(2-fluorobenzene)-1-((3-(3-methylsulphonylpropoxy)phenyl)sulfonyl)-1H-pyrrole-3-yl)-N-methyl methylamine]	> 7.00	–
CNCc1cc(-c2ccccc2F)n(S(=O)(=O)c2cccc(OC3CCN(C(C)=O)C3)c2)c1 (stereo not shown) [EXP 2, 1-(3-(3-((2-(2-fluorobenzene)-4-((methylamino)methyl)-1H-yl)sulfonyl)phenoxy)pyrrolidine-1-yl)ethyl-1-ketone]	6.00 to 7.00	–

Continued, in another order:

pIC50 (H^+/K^+-ATPase)	Structure (SMILES)	also measured
> 7.00	CNCc1cc(-c2ccccc2F)n(S(=O)(=O)c2cccc(OC)c2)c1 [EXP 12]	pIC50 (hERG potassium channel; human, hERG cells (host cell line not named), pH 7.4, whole cell patch clamp, logistic fit): 5.40; Inhibition ratio of max. test concentration (hERG current) (hERG potassium channel; max. test concentration 30 μM): 90.33 ± 2.16%
6.00 to 7.00	CNCc1cc(-c2ccccc2F)n(S(=O)(=O)c2cccc(OCC(C)(C)COC)c2)c1 [EXP 9, 1-(5-(2-fluorobenzene)-1-((3-(3-methoxy-2,2-dimethylpropoxy)phenyl)sulfonyl)-1H-pyrrole-3-yl)-N-methyl methylamine]	–
6.00 to 7.00	CNCc1cc(-c2ccccc2F)n(S(=O)(=O)c2cccc(OCC(=O)NC)c2)c1 [EXP 14, 2-(3-((2-(2-fluorophenyl)-4-((methylamine)methyl)-1H-pyrrole-1-yl)sulfonyl)phenoxy)-N-methylacetamide]	Total acid content ([1]; 2 mg/kg by gavage 1 h before histamine, total acid of 3 h): 0.65 ± 0.20** 10^−4 mol; Acid inhibiting rate % ([1]; 2 mg/kg by gavage, compared with model control): 40.4%
6.00 to 7.00	CNCCCOc1cccc(S(=O)(=O)n2cc(CNC)cc2-c2ccccc2F)c1 [EXP 7, 3-(3-((2-(2-fluorobenzene)-4-((methylamino)methylene)-1H-pyrrole-1-yl)sulfonyl)phenoxy)-N-methyl-n-propylamine]	–
6.00 to 7.00	CNCc1cc(-c2ccccc2F)n(S(=O)(=O)c2cccc(OCCOC)c2)c1 [EXP 3, 1-(5-(2-fluorobenzene)-1-((3-(2-methoxyethyoxyl)phenyl)sulfonyl)-1H-pyrrole-3-yl)-N-methyl methylamine]	–

Source: patent US10913714B2, “Pyrrole sulfonyl derivative, preparation method and medical use thereof” (JIANGSU CAREPHAR PHARMACEUTICAL CO., LTD, priority 2015, dated 2021)
